The text below walks through data of US6951953B2, “Tumor selective and biodegradable polyphosphazene-platinum(II) conjugate antitumor agent, and preparation method thereof” (EWHA Womans University, priority 2003, dated 2005).

The test system of experiment [1] is leukemia L1210 cell line. The following applies: read-out: In vitro (ID50).
Experiment [2] deals with leukemia L1210 cell line.
The test system of experiment [3] is gastric tumor cell line (YCC-3). In words: In vivo xenograft test against a gastric tumor cell line (YCC-3). The following applies: YCC-3 xenograft in nu/nu mice; for The tumor tissue size after injection of an antitumor agent: intraperitoneal; for tumor tissue growth rate / inhibition effect on it (in words): versus control group / cisplatin, after 60 days from injection. On the procedure:
The in vivo sensitivity of the present conjugate drug against a gastric tumor cell line (YCC-3) was assayed using nu/nu mice (6-8 weeks old, 20-25 g). After being treated with 0.25% Trypsin-EDTA, the cultivated tumor cells were centrifuged in PBS solution for 5 minutes. This process was repeated three or more times, and then the tumor cells were made into a single floated tumor cell. The concentration of the tumor cells in PBS solution was calculated from the number of cells measured by a hemocytometer. The tumor cells were then kept in ice and were injected into mice within 30 minutes. The single floated tumor cells (4×10^7) in 100 μl of PBS solution were subcutaneously injected into the right side of each mouse using an 1 ml syringe.
[…] In the case of the control group, only the same amount of PBS solution was injected. Weights of the mice and tumor size were measured every two days. Size of the tumor was calculated with an equation of length×width×width/2.

Where two headings read alike, the source gives them in different places.

As to “poly{[methoxy poly(ethylene glycol)550][glycylglutamato-trans(±trans-(±)-1,2-diaminocyclohexaneplatinum(II)]phosphazene}, {NP(MPEG350)1.12[(GlyGlu)Pt(dach)]0.88}n [Example 7]”, the IC50 in experiment [1] is above 40 µM. Also, the “in vivo T/C (%)” value in experiment [2] (dosage 30 mg/kg) turned out to be 228.2%; in experiment [2] (dosage 60 mg/kg) it was 209.4%.

Regarding “poly{[methoxy poly(ethylene glycol)350][glycylglutamato-trans-(±)-1,2-diaminocyclohexaneplatinum(II)]phosphazene}, {NP(MPEG350)1.4[(GlyGlu)Pt(dach)]0.6}n [Example 5]”, in experiment [1], the IC50 was found to be 6.2 µM. In addition, the “in vivo T/C (%)” value in experiment [2] (dosage 30 mg/kg) worked out at 244.3%; in experiment [2] (dosage 60 mg/kg), 231.1%.

With `N.N.[Cl][Pt][Cl]` [Cisplatin, reference compound], the “The tumor tissue size after injection of an antitumor agent” value (“The tumor tissue size after injection” below) in experiment [3] (18 days, dosage 4 mg/kg) is reported as 161.36 mm^3; in experiment [3] (32 days, dosage 4 mg/kg), 330.62 mm^3; in experiment [3] (48 days, dosage 4 mg/kg) it was 588.02 mm^3; in experiment [3] (60 days, dosage 4 mg/kg), 815.79 mm^3. The “tumor tissue growth rate / inhibition effect on it (in words)” value in experiment [3] is “not significantly different from that of the control group”.

Take “poly{[methoxy poly(ethylene glycol)350][glycylglutamato-trans-(±)-1,2-diaminocyclohexaneplatinum(II)]phosphazene}, {NP(MPEG350)1.0[(GlyGlu)Pt(dach)]1.0}n [Example 3]”: the IC50 in experiment [1] was 3.4 µM. Moreover, the “The tumor tissue size after injection” value came out at 121.92 mm^3 in experiment [3] (18 days, dosage 30 mg/kg); 32.69 mm^3 in experiment [3] (18 days, dosage 60 mg/kg); 210.38 mm^3 in experiment [3] (32 days, dosage 30 mg/kg); 72.08 mm^3 in experiment [3] (32 days, dosage 60 mg/kg); 111.23 mm^3 in experiment [3] (48 days, dosage 30 mg/kg); 65.36 mm^3 in experiment [3] (48 days, dosage 60 mg/kg). The “The tumor tissue size after injection” value is recorded as 22.71 mm^3 in experiment [3] (60 days, dosage 30 mg/kg) and 91.10 mm^3 in experiment [3] (60 days, dosage 60 mg/kg). In addition, the “tumor tissue growth rate / inhibition effect on it (in words)” value in experiment [3] is “outstanding compared with that of cisplatin”. In addition, the “in vivo T/C (%)” value is listed as 194.1% in experiment [2] (dosage 30 mg/kg) and “toxic” in experiment [2] (dosage 60 mg/kg).

As to “poly{[methoxy poly(ethylene glycol)350][glycylglutamato-trans-(±)-1,2-diaminocyclohexaneplatinum(II)]phosphazene}, {NP(MPEG350)1.2[(GlyGlu)Pt(dach)]0.8}n [Example 2]”, the IC50 in experiment [1] was found to be 6.9 µM. For the same compound, the “in vivo T/C (%)” value in experiment [2] (dosage 30 mg/kg) is recorded as 208.1%; in experiment [2] (dosage 60 mg/kg), above 305.6%.

Regarding “pol{[methoxy poly(ethylene glycol)350][glycylglutamato-trans-(±)-1,2-diaminocyclohexaneplatinum(II)]phosphazene}, {NP(MPEG350)1.2[(GlyGlu)Pt(dach)]0.8}n [Example 4]”, the IC50 in experiment [1] is 3.5 µM. The figures for the “in vivo T/C (%)” value in experiment [2] (dosage 30 mg/kg) and in experiment [2] (dosage 60 mg/kg) were 186.8% and 216.8%, respectively.

Take “poly{[methoxy poly(ethylene glycol)350][glycylglutamato-trans-(±)-1,2-diaminocyclohexaneplatinum(II)]phosphazene}, {NP(MPEG350)1.5[(GlyGlu)Pt(dach)]0.5}n [Example 1]”: the IC50 in experiment [1] was found to be 8.2 µM. Also, the “in vivo T/C (%)” value in experiment [2] (dosage 30 mg/kg) is 178/30%.
